The results in this text go back to patent US20130236441A1, “METHODS OF TREATING AND PREVENTING THROMBOTIC DISEASES USING ASK1 INHIBITORS” (University of Delaware, priority 2010, published 2013).

The subject of one test is ASK1. In words: ASK1 T838 phosphorylation in thrombin-stimulated washed human platelets (Western blot). It counts as cell-based. The following applies: thrombin 0.05 U-1 U/ml. As to the method: Washed human platelets (2×10^8) were stimulated with thrombin (1 U/ml) for various time periods as indicated, and the lysates were Western blotted using phospho-specific antibodies against (A) ASK1, (B) MKK3 and P38, and (C) MKK4, and reprobed with corresponding antibodies against total proteins (Cell Signaling Technology, Inc.) to ensure relatively equal loading of ASK1, MKK3, P38 or MKK4 protein in each of its respective lanes.
A study was carried out to determine whether ASK1 was activated during agonist-induced platelet stimulation. A well-characterized antibody specific to the phosphorylated threonine 838 (T838) of ASK1 was used. […] Upon stimulation with as low as 0.05 U-1 U/ml of thrombin, ASK1 was activated rapidly and transiently as evidenced by phosphorylation of T838 (FIG. 3A). In a low percentage SDS-PAGE, ASK1 appeared as a doublet.
On the technique in general: Immunoblotting shows a protein as a band on a membrane.

For test [1], the system named is WT or Ask1−/− mouse platelets. In words: 14C-serotonin release (dense granule secretion) from agonist-stimulated mouse platelets. It counts as cell-based. The following applies: aspirin pretreatment. As to the method: (A) ^14C-serotonin-labeled platelets (2.5×10^8 per ml) from Ask1^+/+ and Ask1^−/− mice were stimulated with various concentration of thrombin for 5 min, and the ^14C-serotonin release was determined using a liquid scintillation counter. (B) Platelets from Ask1^+/+ and Ask1^−/− mice were stimulated with various concentrations of thrombin for 5 min and P-selectin exposure on the platelet surface was determined using flow cytometry. Granular secretion was assessed using WT or Ask1−/− mouse platelets in response to low and high dose of agonists such as thrombin (FIG. 7A) and thrombin/PAR4-peptide (AYPGKF) (FIG. 7B). Dense granule secretion was analyzed by measuring ^14C-serotonin release (FIG. 7A). α-granule secretion was assessed by P-selectin exposure using flow cytometry (FIG. 7B). Ask1 regulated a significant portion of dense granule secretion induced by high dose of thrombin (FIG. 7A). Similar results were obtained when P-selectin exposure was assessed as a measure of α-granule secretion (FIG. 7B).

For thrombin, in the test with ASK1, the “ASK1 activation (phosphorylation of T838)” value is given as “dose-dependently activated”. Consider `CC(=O)Oc1ccccc1C(=O)O` [aspirin], for which the “amount of serotonin released” value in test [1] (Ask1−/− platelets) is “no effect”; in test [1] (WT platelets), “reduced the amount of serotonin released to that of Ask1−/− platelets”.
